Earlier results on three molecules are cited in publication PMC10205807, “Cross-species comparison in nonclinical pharmacokinetics of lenvatinib by a simple HPLC with ultraviolet detection” (Scientific Reports, 2023).

The structures appear in SMILES notation. Like-named read-outs stand apart in the source and are kept apart here.

On the set-up of data set [1]: method as in PMID 29620050. The settings on record: male rats, intravenous; cited from earlier work.
Details of data set [2]: method as in PMID 29620050. The settings on record: dogs, intravenous; cited from earlier work.
On the set-up of data set [3]: method as in PMID 30514402. The settings on record: monkeys; cited from earlier work.
Details of data set [4]: method as in PMID 30514402. To be noted: mice; cited from earlier work.
Details of data set [5]: method as in PMID 30514402. The settings on record: dogs; cited from earlier work.
On the set-up of data set [6]: method as in PMID 28115222. To be noted: rats; cited from earlier work.
Details of data set [7]: method as in PMID 28115222. To be noted: dogs; cited from earlier work.
On the set-up of data set [8]: method as in PMID 28115222. To be noted: mice; cited from earlier work.

`COc1cc2c(Oc3ccc4[nH]c(C)cc4c3F)ccnc2cc1OCC1(N)CC1` [anlotinib]: in data set [1], the CLtot was 106 mL/min/kg and the Vdss is listed as 25.4 L/kg. Besides, in data set [2], the CLtot was 6.33 mL/min/kg and the volume of distribution (Vdss) is given as 6.8 L/kg.
For `Cc1cn(-c2cc(NC(=O)c3ccc(C)c(Nc4nccc(-c5cccnc5)n4)c3)cc(C(F)(F)F)c2)cn1` [nilotinib], in data set [3], the CLtot was 10.6 mL/min/kg, the Oral bioavailability is listed as 16% and the volume of distribution (Vdss) is 5.737 L/kg. Further, in data set [4], the CLtot was 2.18 mL/min/kg, the Oral bioavailability is given as 50% and the Vdss is 0.29 L/kg. In addition, in data set [5], the CLtot was 3.17 mL/min/kg, the Oral bioavailability was 24% and the Vdss was 1.157 L/kg.
As for `CCOc1cc2ncc(C#N)c(Nc3ccc(OCc4ccccn4)c(Cl)c3)c2cc1NC(=O)/C=C/[C@H]1CCCN1C` [pyrotinib], in data set [6], the CLtot is listed as 3.5 mL/min/kg, the F is reported as 43.5% and the Vdss was 1.35 L/kg. Moreover, in data set [7], the CLtot is reported as 28 mL/min/kg, the F is reported as 20.0% and the volume of distribution (Vdss) is 8.157 L/kg. In addition, in data set [8], the CLtot is listed as 37.2 mL/min/kg, the F was 20.6% and the distribution volume (Vdss) is 5.027 L/kg.

The term Vdss denotes a proportionality between amount in the body and measured concentration, not a real space.
